Test results reported in patent US5441941A, “1,2-dihydroellipticines with activity against CNS specific cancer” (The United States of America as represented by the …, priority 1993, dated 1995).

Columns and labels:
DMS 273 = assay: NCI in vitro screen, SRB percent growth, Small Cell Lung Cancer
DMS 114 = assay: cells; settings: Homo sapiens; for CC50: DMS-114, read-out: LC-50
[1] = DMS-114, read-out: Percent Growth

| SMILES | Percent Growth (DMS 273; Log10 Concentration -4.0, 100 µM) [%] | Percent Growth (DMS 273; Log10 Concentration -5.0) [%] | Percent Growth (DMS 273; Log10 Concentration -6.0, 1 µM) [%] | Percent Growth (DMS 273; Log10 Concentration -7.0, 0.1 µM) [%] | Percent Growth (DMS 273; Log10 Concentration -8.0) [%] | CC50 (DMS 273; read-out: LC-50, PG=-50) [µM] | CC50 (DMS 114) [µM] | activity at 0.1 µM (DMS 114; [1]) [%] | activity at 1 µM (DMS 114; [1]) [%] | activity at 10 µM (DMS 114; [1]) [%] | activity at 100 µM (DMS 114; [1]) [%] | activity at 0.01 µM (DMS 114; [1]) [%] |
| --- | --- | --- | --- | --- | --- | --- | --- | --- | --- | --- | --- | --- |
| COc1ccc2[nH]c3c(C)c4c(c(C)c3c2c1)CN(C)C=C4 [Formula VII] | -72 | 10 | 48 | 77 | 98 | 54.3 | > 100 | 64 | 11 | -37 | -46 |  |
| Cc1ccc2[nH]c3c(C)c4c(c(C)c3c2c1)CN(C)C=C4 [Formula XI] |  |  |  |  |  |  | 6.03 | 73 |  | -74 | -68 | 80 |
